Data taken from patent US4656178A (priority 1985, dated 1987).
Where a name gives a salt, the structure may show the parent alone. Read-outs that look alike come from different tables or passages of the source.

Legend:
[1] = tested on: aconitine arrhythmia; experiment: animal or person; assay type: in vivo, rats; conditions: for antiarrhythmic index (LD50/ED50): prophylactic effect, aconitine arrhythmia; for perdition of narcotized rats prior to administration of aconitine: doses of 20 mg/kg and more; for duration of prevention of aconitine arrhythmia: doses of 5-10 mg/kg
Description: The assessment of the antiarrhythmic activity of the preparation was effected in acute and chronical experiments on rats, rabbits, cats and dogs. Various experimental models of arrhythmia were also used.
(§1) The atrioventricular arrhythmia caused by aconitine is one of the most reliable models for forecasting the efficiency of the antiarrhythmic action of the novel preparation in clinics. The experiments were conducted on both narcotized and non-narcotized animals. The preparation was administered per os, intramuscularly, intraperitoneally and intravenously 5 to 15 minutes prior to or 3-5 minutes after the administration of aconitine.
In doses of 0.2-0.5 mg/kg the preparation of this invention prevents the appearance of aconitine arrhythmia in 100% of the rats. […] Under similar experimental conditions a preliminary administration of novocainamide in the dose of 60 mg/kg intravenously produced an antiarrhythmic effect in 50% of the animals.

[2] = tested on: aconitine arrhythmia; assay type: in vivo, rats; conditions: for efficacy against developing aconitine arrhythmia: similar conditions, dose not stated
Description: as §1
The antiarrhythmic activity of the pharmaceutical composition according to the present invention upon administration thereof against the background of a developing aconitine arrhythmia (therapeutic effect) was studied on 110 narcotized rats. The preparation was intravenously administered at intervals of 3-6 minutes against the background of the originated arrhythmia.

[3] = tested on: cardiac arrhythmia induced by barium chloride; experiment: cardiac arrhythmia induced by barium chloride; assay type: in vivo, narcotized rats and intact rabbits
Description: The study of the antiarrhythmic activity of the preparation according to the present invention on a model of cardiac arrhythmia induced by barium chloride was carried out on 56 narcotized rats and 16 intact rabbits. The preparation of the present invention in the dose of 0.1 mg/kg injected 10 minutes prior to administration of barium prevented the development of arrhythmia in 86.6% of the animals.

[4] = tested on: arrhythmia caused by electrical irritation; experiment: arrhythmia caused by electrical irritation of the right auricle and apex of the left ventricle; assay type: in vivo, dogs and cats; conditions: for onset of antiarrhythmic effect: after intravenous administration; for bradycardia / reduction of arterial pressure: all tested doses
[5] = tested on: cardiac arrhythmia caused by ligation of the descending branch of the left coronary artery; experiment: cardiac arrhythmia caused by ligation of the descending branch of the left coronary artery (Harris method) in dogs; assay type: in vivo
Description: The effect of the preparation according to the present invention on the cardiac arrhythmia caused by ligation of the descending branch of the left coronary artery by the Harris method was studied in experiments on dogs. The preparation according to the present invention was intravenously administered on the first and second post-operative days. Preliminarily, prior to every experiment 30 to 45 minutes before the administration of the preparation the background changes of the dogs' electrocardiogram (ECG) were recorded. […] In 40% thereof a full suppression of ectopic contractions was noticed for 3-3.5 hours, whereafter arrhythmia appeared with the intensity thereof not reaching the initial background during 7 hours.

[6] = tested on: cardiac conductive system; assay type: in vivo, narcotized rats, cats, intact rabbits and dogs; conditions: for rhythm of cardiac contractions: high doses
Source text: To investigate the character of the effect produced on the functions of the cardiac conductive system by the preparation according to the present invention, the ECG changes appearing in narcotized rats, cats, intact rabbits and dogs under the action of the preparation of this invention were studied. […] The effect of the preparation is retained for a long time.

[7] = tested on: frog's heart; experiment: amplitude of cardiac contractions of isolated frog's heart (Schtraube)
Source text: To find out a negative inotropic effect on the heart tissue, two series of experiments have been carried out:
(1) the study of the effect of the preparation of this invention on the amplitude of the cardiac contractions of a frog's heart isolated according to Schtraube;

[8] = infiltration anesthesia in rabbits (intracutaneous); assay type: in vivo; conditions: 0.5% solution
Description: The local anesthetic effect of the preparation was studied on 14 intact rabbits. […] The results of the experiments on determination of the ability of the preparation to cause infiltration anesthesia have shown that 10-15 minutes after intracutaneous administration, to rabbits, of 0.01-0.05% and 0.1% solutions of the preparation anesthesia occurs which is characterized by an increased threshold of a pain irritation; the duration of the effect is 20 to 48 hours. Under the same conditions of the experiment, the local anesthetic effect of a 0.5% solution of novocaine lasts for 90 minutes on the average.

[9] = tested on: cardiotoxic effect of the preparation; experiment: sodium bicarbonate at cardiotoxic effect of the preparation in dogs

For `COc1ccc(CCN(C)CCCC(C#N)(c2ccc(OC)c(OC)c2)C(C)C)cc1OC` (stereo not drawn) [isoptin], the “prevention of aconitine arrhythmia” value ([1]; doses of 0.1-2.5 mg/kg) was “did not prevent the development of aconitine arrhythmia”.
For `CC(C)NCC(O)COc1cccc2ccccc12` (stereo not drawn) [obzidan, propranolol], the “animals in which arrhythmia was developed (after retardation)” value ([1]; 5 mg/kg) was 60%, the “retardation of the time of appearance of aconitine arrhythmia” value ([1]; 5 mg/kg, in all test rats) was 5 to 8 min and the “efficacy against developing aconitine arrhythmia” value [2] was “inefficient”.
With `C=C[C@H]1C[N@@]2CC[C@H]1C[C@@H]2[C@@H](O)c1ccnc2ccc(OC)cc12` [quinidine] the “antiarrhythmic effect relative to the preparation” value ([3]; 10 mg/kg) was “approximately corresponded to the antiarrhythmic effect produced by the preparation according to the present invention in the dose of 0.1 mg/kg”, the “animals with antiarrhythmic effect” value ([4]; 10 mg/kg) was 30% and the “duration of antiarrhythmic effect” value ([4]; 10 mg/kg) was 2 to 5 min. The “duration of antiarrhythmic effect” value ([4]; 20-30 mg/kg) was 20 to 25 min, the “onset of antiarrhythmic effect” value [4] was 2 to 3 min and the bradycardia [4] was “bradycardia”. The “reduction of arterial pressure” value [4] was 20-70 mm Hg, the “effect on cardiac arrhythmia” value ([5]; 5-10 mg/kg) was “weak effect” and the “rhythm of cardiac contractions” value [6] was “sharp disturbances of the rhythm of cardiac contractions”. The “animals with antiarrhythmic effect” value ([1]; 20 mg/kg) was 50%, the “antiarrhythmic index (LD50/ED50)” value [1] was 2.75 and the “negative inotropic effect compared with the preparation” value [7] was “considerably superior to the preparation of the present invention”. The “effect on isolated heart” value ([7]; concentration of 10^-4 to 3.10^-4 g/ml) was “along with a sharp inhibition of the amplitude of cardiac contractions, arrhythmia” and the “antiarrhythmic activity against developing aconitine arrhythmia” value ([2]; doses of 2.5, 5, 10, 20 mg/kg) was “no antiarrhythmic activity”.
For `CCN(CC)CCOC(=O)c1ccc(N)cc1` [novocaine, reference compound], the “duration of local anesthetic effect (average)” value [8] was about 90 min.
With `CCN(CC)CCNC(=O)c1ccc(N)cc1` [novocainamide, β-diethylaminoethylamide hydrochloride of p-aminobenzoic acid] the “antiarrhythmic activity, barium chloride model” value ([3]; comparison with preparation and quinidine) was “weakest antiarrhythmic activity”, the “animals with antiarrhythmic effect” value ([4]; 10 mg/kg) was 40% and the “duration of antiarrhythmic effect” value ([4]; 10 mg/kg) was 2 to 5 min. For the same compound, the “duration of antiarrhythmic effect” value ([4]; 20-30 mg/kg) was 20 to 25 min, the “onset of antiarrhythmic effect” value [4] was 1.0 to 1.5 min and the bradycardia [4] was “bradycardia”. The “reduction of arterial pressure” value [4] was 20-70 mm Hg, the “duration of antiarrhythmic effect” value ([5]; 40-50 mg/kg) was 4 to 7 min and the “duration of antiarrhythmic effect” value ([5]; 70-80 mg/kg) was 30 to 60 min. The “dose producing the antiarrhythmic effect” value ([5]; dog, in vivo) was 40 to 50 mg/kg, the “rhythm of cardiac contractions” value [6] was “sharp disturbances of the rhythm of cardiac contractions” and the “animals with antiarrhythmic effect” value ([1]; 60 mg/kg intravenously, preliminary administration) was 50%. The “antiarrhythmic index (LD50/ED50)” value [1] was 2.3, the “rats with restored normal sinus rhythm” value ([2]; 20 mg/kg) was 3 rats out of 6 and the “duration of restored normal sinus rhythm (average)” value ([2]; 20 mg/kg, then stable arrhythmia appeared again) was about 10 min. The “animals with antiarrhythmic effect” value ([2]; 40 mg/kg) was 83.3%, the “rats with effect only during the first 20 minutes, then stable arrhythmia reappeared” value ([2]; 40 mg/kg) was 50% and the “duration of effect, after which stable arrhythmia reappeared” value ([2]; 40 mg/kg, in 50% of the rats) was 20 min. The “antiarrhythmic index (LD50/ED50)” value ([2]; against background of developing aconitine arrhythmia) was 6.9.
For `CCN(CC)CC(=O)Nc1c(C)cccc1C` [lidocaine], the “perdition of narcotized rats prior to administration of aconitine” value [1] was “perdition of a portion of the narcotized rats”, the “duration of prevention of aconitine arrhythmia” value [1] was 3 to 5 min and the “duration of arrhythmia-arresting effect” value ([2]; 5-10 mg/kg, followed by development of arrhythmia) was 0.5 to 3 min.
In the case of `O=C(O)O` [sodium bicarbonate], the “effect on the inhibition of conductivity by the preparation” value ([6]; in vivo) is reported as “diminishes the inhibiting effect of the preparation on conductivity”, the “effect on ECG changes caused by toxic doses of the preparation” value ([9]; 4% solution, 100 to 200 ml) is reported as “equalizes distinctly pronounced electrocardiographic changes” and the “effect on reduced arterial pressure in overdosing of the preparation” value ([9]; infusion of sodium bicarbonate) is reported as “levelled”. For the same compound, the “time to equalization of ECG changes caused by toxic doses of the preparation” value ([9]; intravenous infusion of 4% solution, 100 to 200 ml, after beginning of infusion) was 15 to 30 min.
For `CCN(CC)CC(=O)Nc1c(C)cc(C)cc1C` [trimecaine], the “perdition of narcotized rats prior to administration of aconitine” value [1] was “perdition of a portion of the narcotized rats”, the “duration of prevention of aconitine arrhythmia” value [1] was 3 to 5 min and the “efficacy against developing aconitine arrhythmia” value [2] was “inefficient”.
